Assay results: patent US8841483B2, “Compositions useful as inhibitors of voltage-gated sodium channels” (Vertex Pharmaceuticals Incorporated, priority 2006, dated 2014)
pIC50: −log10 of the molar value.

Molecular target: NaV1.8 (Homo sapiens, UniProt Q9Y5Y9)
Assay: Activity against NaV 1.8 channel (Table 3), optical membrane potential / electrophysiology assays
Format: cell-based
Description: Compounds of the invention are useful as antagonists of voltage-gated sodium ion channels. Antagonist properties of test compounds were assessed as follows. Cells expressing the NaV of interest were placed into microtiter plates. After an incubation period, the cells were stained with fluorescent dyes sensitive to the transmembrane potential. The test compounds were added to the microtiter plate. The cells were stimulated with either a chemical or electrical means ti evoke a NaV dependent membrane potential change from unblocked channels, which was detected and measured with trans-membrane potential-sensitive dyes. Antagonists were detected as a decreased membrane potential response to the stimulus. The optical membrane potential assay utilized voltage-sensitive FRET sensors described by Gonzalez and Tsien (See, Gonzalez, J. E. and R. Y. Tsien (1995) “Voltage sensing by fluorescence resonance energy transfer in single cells” Biophys J 69(4): 1272-80, and Gonzalez, J. E. and R. Y. Tsien (1997) “Improved indicators of cell membrane potential that use fluorescence resonance energy transfer” Chem Biol 4(4): 269-77) in combination with instrumentation for measuring fluorescence changes such as the Voltage/Ion Probe Reader (VIPR®) (See, Gonzalez, J. E., K. Oades, et al. (1999) “Cell-based assays and instrumentation for screening ion-channel targets” Drug Discov Today 4(9): 431-439).
The following is an example of how NaV1.3 inhibition activity is measured using the optical membrane potential method #2. Other subtypes are performed in an analogous mode in a cell line expressing the NaV of interest.
HEK293 cells stably expressing NaV1.3 are plated into 96-well microtiter plates. After an appropriate incubation period, the cells are stained with the voltage sensitive dyes CC2-DMPE/DiSBAC2(3) as follows.
2X CC2-DMPE=20 μM CC2-DMPE: 10 mM CC2-DMPE is vortexed with an equivalent volume of 10% pluronic, followed by vortexing in required amount of HBSS containing 10 mM HEPES. Each cell plate will require 5 mL of 2X CC2-DMPE. 50 μL of 2X CC2-DMPE is to wells containing washed cells, resulting in a 10 μM final staining concentration. The cells are stained for 30 minutes in the dark at RT.
2X DISBAC2(3) with ABSC1=6 μM DISBAC2(3) and 1 mM ABSC1: The required amount of 10 mM DISBAC2(3) is added to a 50 ml conical tube and mixed with 1 μL 10% pluronic for each mL of solution to be made and vortexed together. Then HBSS/HEPES is added to make up 2X solution. Finally, the ABSC1 is added.
The 2X DiSBAC2(3) solution can be used to solvate compound plates. Note that compound plates are made at 2X drug concentration. Wash stained plate again, leaving residual volume of 50 μL. Add 50 uL/well of the 2X DiSBAC2(3) w/ABSC1. Stain for 30 minutes in the dark at RT.
The electrical stimulation instrument and methods of use are described in ION Channel Assay Methods PCT/US01/21652, herein incorporated by reference. The instrument comprises a microtiter plate handler, an optical system for exciting the coumarin dye while simultaneously recording the coumarin and oxonol emissions, a waveform generator, a current- or voltage-controlled amplifier, and a device for inserting electrodes in well. Under integrated computer control, this instrument passes user-programmed electrical stimulus protocols to cells within the wells of the microtiter plate.
Assay Protocol • 1. Insert or use electrodes into each well to be assayed. • 2. Use the current-controlled amplifier to deliver stimulation wave pulses for 3 s. Two seconds of pre-stimulus recording are performed to obtain the un-stimulated intensities. Five seconds of post-stimulation recording are performed to examine the relaxation to the resting state.
Data are analyzed and reported as normalized ratios of background-subtracted emission intensities measured in the 460 nm and 580 nm channels. Background intensities are then subtracted from each assay channel. […]

Row | SMILES | pIC50
1 | NS(=O)(=O)c1cccc(NC(=O)c2ccccc2-c2ccccc2)c1 [Compound 94] | < 5.00
2 | COc1cc(C(C)(C)C)ccc1C(=O)Nc1cccc(S(N)(=O)=O)c1 [Compound 106] | > 5.70
3 | COc1ccc(Oc2cc(C(C)(C)C)ccc2C(=O)Nc2cccc(S(N)(=O)=O)c2)cc1 [Compound 88] | > 5.70
4 | CC(C)(C)c1ccc(C(=O)Nc2cccc(S(N)(=O)=O)c2)c([S+]([O-])c2ccccc2)c1 (centres unmarked) [Compound 110, 4-tert-Butyl-2-(phenylsulfinyl)-N-(3-sulfamoylphenyl)benzamide] | 5.00 to 5.70
5 | Cc1cc(Oc2cc(C(C)(C)C)ccc2C(=O)Nc2cccc(S(N)(=O)=O)c2)cc(C)n1 [Compound 124] | < 5.00
6 | Cc1ccc(Oc2ccccc2C(=O)Nc2cccc(S(N)(=O)=O)c2)cc1 [Compound 59] | 5.00 to 5.70
7 | CC(C)(C)c1ccc(C(=O)Nc2cccc(S(N)(=O)=O)c2)c(Oc2cccc(N3CCOCC3)c2)c1 [Compound 136] | < 5.00
8 | COc1cccc(Oc2cc(C(C)(C)C)ccc2C(=O)Nc2cccc(S(N)(=O)=O)c2)c1 [Compound 139] | 5.00 to 5.70
9 | Cc1ccc(Oc2cc(C(C)(C)C)ccc2C(=O)Nc2cccc(S(N)(=O)=O)c2)c(C)c1 [Compound 109] | > 5.70
10 | CC(C)(C)c1ccc(C(=O)Nc2cccc(S(N)(=O)=O)c2)c(Oc2ccc(F)cc2F)c1 [Compound 107] | > 5.70
11 | COc1ccc(Oc2ccccc2C(=O)Nc2cccc(S(N)(=O)=O)c2)cc1 [Compound 50] | 5.00 to 5.70
12 | Cc1cccc(Oc2cc(C(C)(C)C)ccc2C(=O)Nc2cccc(S(N)(=O)=O)c2)c1 [Compound 119] | > 5.70
13 | CC(C)(C)c1ccc(C(=O)Nc2cccc(S(N)(=O)=O)c2)c(Oc2ccc(C(N)=O)cc2)c1 [Compound 118] | < 5.00
14 | NS(=O)(=O)c1cccc(NC(=O)c2ccc(Cl)cc2Cl)c1 [Compound 120] | < 5.00
15 | NS(=O)(=O)c1cccc(NC(=O)c2cccc(C(=O)c3ccccc3)c2)c1 [Compound 18] | < 5.00
16 | CCc1cc(C(=O)Nc2cccc(S(N)(=O)=O)c2)ccc1-c1ccccc1 [Compound 65] | < 5.00
17 | NS(=O)(=O)c1cccc(NC(=O)c2ccccc2Nc2cccc(-c3nnn[nH]3)c2)c1 [Compound 82] | < 5.00
18 | NS(=O)(=O)c1cccc(NC(=O)c2ccccc2Nc2cccc(Oc3ccccc3)c2)c1 [Compound 17] | < 5.00
19 | COc1cc(C)ccc1C(=O)Nc1cccc(S(N)(=O)=O)c1 [Compound 77] | < 5.00
20 | CC(C)(C)c1ccc(C(=O)Nc2cccc(S(N)(=O)=O)c2)c(Oc2ccccc2Cl)c1 [Compound 48] | > 5.70
21 | NS(=O)(=O)c1cccc(NC(=O)c2ccccc2Oc2ccccc2Cl)c1 [Compound 21] | > 5.70

Row | SMILES | pIC50
22 | NS(=O)(=O)c1cccc(NC(=O)c2ccccc2NCc2ccccc2)c1 [Compound 68] | < 5.00
23 | CS(=O)(=O)c1ccc(C(=O)Nc2cccc(S(N)(=O)=O)c2)c(Cl)c1 [Compound 127] | < 5.00
24 | CC(=O)c1ccccc1Oc1cc(C(C)(C)C)ccc1C(=O)Nc1cccc(S(N)(=O)=O)c1 [Compound 102] | 5.00 to 5.70
25 | NS(=O)(=O)c1cccc(NC(=O)c2ccccc2COc2ccccc2)c1 [Compound 12] | 5.00 to 5.70
26 | NS(=O)(=O)c1cccc(NC(=O)c2ccccc2-c2cccnc2)c1 [Compound 11] | < 5.00
27 | Cc1c(Cl)cc(NC(=O)c2ccc(C(C)(C)C)cc2)cc1S(N)(=O)=O [Compound 24] | < 5.00
28 | CC(C)(C)c1ccc(C(=O)Nc2cccc(S(N)(=O)=O)c2)c(Oc2ccc(C#N)cc2)c1 [Compound 130] | > 5.70
29 | CC(C)(C)NS(=O)(=O)c1cccc(NC(=O)c2ccc(C(C)(C)C)cc2Br)c1 [Compound 126] | 5.00 to 5.70
30 | NS(=O)(=O)c1cccc(NC(=O)c2ccccc2CCc2ccccc2)c1 [Compound 71] | 5.00 to 5.70
31 | CN(C)S(=O)(=O)c1cccc(NC(=O)c2ccc(C(C)(C)C)cc2)c1 [Compound 72] | < 5.00
32 | Cc1ccccc1Oc1ccccc1C(=O)Nc1cccc(S(N)(=O)=O)c1 [Compound 91] | > 5.70
33 | COc1ccccc1Oc1ccccc1C(=O)Nc1cccc(S(N)(=O)=O)c1 [Compound 23] | > 5.70
34 | NS(=O)(=O)c1cccc(NC(=O)c2ccccc2Nc2cccc(F)c2)c1 [Compound 6] | < 5.00
35 | COc1cccc(Oc2ccccc2C(=O)Nc2cccc(S(N)(=O)=O)c2)c1 [Compound 84] | 5.00 to 5.70
36 | Cc1ccc(-c2ccccc2C(=O)Nc2cccc(S(N)(=O)=O)c2)cc1 [Compound 75] | 5.00 to 5.70
37 | CC(C)(C)c1ccc(C(=O)Nc2cccc(S(N)(=O)=O)c2)c(Sc2ccccc2)c1 [Compound 105] | > 5.70
38 | CC(=O)c1cccc(Oc2cc(C(C)(C)C)ccc2C(=O)Nc2cccc(S(N)(=O)=O)c2)c1 [Compound 135] | > 5.70
39 | CC(C)(C)c1ccc(C(=O)Nc2cccc(S(N)(=O)=O)c2)c(Oc2ccc(F)cc2)c1 [Compound 78, 2-(4-Fluorophenoxy)-4-tert-butyl-N-(3-(aminosulfonyl)phenyl)benzamide] | > 5.70
40 | NS(=O)(=O)c1cccc(NC(=O)c2ccccc2Oc2ccccc2)c1 [Compound 63] | 5.00 to 5.70
41 | NS(=O)(=O)c1cccc(NC(=O)c2ccccc2NC(=O)c2cccnc2)c1 [Compound 20] | < 5.00

Other lines, results leading:

Row | pIC50 | SMILES
42 | > 5.70 | NS(=O)(=O)c1cccc(NC(=O)c2ccccc2Oc2ccc(F)cc2)c1 [Compound 95]
43 | < 5.00 | NS(=O)(=O)c1cccc(NC(=O)c2ccc(Br)cc2)c1 [Compound 13]
44 | < 5.00 | NS(=O)(=O)c1cccc(NC(=O)c2ccccc2C(F)(F)F)c1 [Compound 47]
45 | < 5.00 | NS(=O)(=O)c1cccc(NC(=O)c2ccc(-c3ccccc3)cc2)c1 [Compound 58]
46 | < 5.00 | COc1ccc(C(=O)Nc2cccc(S(N)(=O)=O)c2)cc1OC [Compound 9]
47 | < 5.00 | NS(=O)(=O)c1cccc(NC(=O)c2ccc(OC(F)(F)F)cc2)c1 [Compound 34, N-(3-(Aminosulfonyl)phenyl)-4-(trifluoromethoxy)benzamide]
48 | > 5.70 | CC(C)(C)c1ccc(C(=O)Nc2cccc(S(N)(=O)=O)c2)c(Oc2cccc(C(F)(F)F)c2)c1 [Compound 134]
49 | < 5.00 | CCOc1ccc(C(=O)Nc2cccc(S(N)(=O)=O)c2)cc1 [Compound 64]
50 | < 5.00 | NS(=O)(=O)c1cccc(NC(=O)c2cccc(Br)c2)c1 [Compound 40]
51 | < 5.00 | NS(=O)(=O)c1cccc(NC(=O)c2ccc(Cl)cc2)c1 [Compound 31]
52 | < 5.00 | Cc1cc(Br)ccc1C(=O)Nc1cccc(S(N)(=O)=O)c1 [Compound 2]
53 | < 5.00 | CCCCc1ccc(C(=O)Nc2cccc(S(N)(=O)=O)c2)cc1 [Compound 96]
54 | < 5.00 | NS(=O)(=O)c1cccc(NC(=O)c2ccc3ccccc3c2)c1 [Compound 62]
55 | < 5.00 | NS(=O)(=O)c1cccc(NC(=O)c2ccc(C(F)(F)F)cc2O)c1 [Compound 100]
56 | < 5.00 | COc1ccc(C(=O)Nc2cccc(S(N)(=O)=O)c2)cc1 [Compound 22]
57 | < 5.00 | CCCCOc1ccc(C(=O)Nc2cccc(S(N)(=O)=O)c2)cc1 [Compound 57]
58 | < 5.00 | CN(C)c1ccc(C(=O)Nc2cccc(S(N)(=O)=O)c2)cc1 [Compound 33]
59 | < 5.00 | CS(=O)(=O)c1ccc(C(=O)Nc2cccc(S(N)(=O)=O)c2)cc1 [Compound 56]
60 | > 5.70 | CC(C)(C)c1ccc(C(=O)Nc2cccc(S(N)(=O)=O)c2)c(Oc2ccc(C(F)(F)F)nc2)c1 [Compound 115]
61 | < 5.00 | NS(=O)(=O)c1cccc(NC(=O)c2ccc(Cc3ccccc3)cc2)c1 [Compound 5]
62 | > 5.70 | NS(=O)(=O)c1cccc(NC(=O)c2ccccc2Oc2ccc(C(F)(F)F)cc2)c1 [Compound 16]
